Measured values taken from patent publication US20250134848A1, “METHOD OF ADMINISTRATION OF […] THE INDUCTION OF TUMOR ASSOCIATED ANTIGENS” (BryoLogyx Inc., priority 2022, published 2025).

Columns and labels:
[1] = test system: CD19; assay: CD19 expression in human PBMC, antibody binding capacity by flow cytometry; format: cell-based; details: FIG. 1
Procedure: (§1) The ability of bryostatin-1 to promote antigen expression was evaluated in vitro. Human peripheral blood mononuclear cells (PBMC) were cultured according to previously published methods (Ramakrishna et al., 2019). Briefly, cells were washed and then treated with either bryostatin-1 (1 nM) or DMSO (vehicle control) for different times as indicated, ranging from 45 min to 24 hrs. Antibody binding capacity (ABC) was measured by flow cytometry (NCI flow lab); and plotted (FIGS. 1 and 2), either directly or as fold change over DMSO/vehicle control.

[2] = test system: CD22; assay: CD22 expression in human PBMC, antibody binding capacity by flow cytometry; format: cell-based; details: FIG. 2
Procedure: as §1

[3] = test system: CD19 and CD22; assay: Changes in expression of CD19 and CD22 in tumor cell lines and human cells after varying exposure times; format: cell-based
Procedure: We have shown that short exposure to bryostatin-1 in vitro is sufficient to elevate tumor-associated antigen expression. In experiments performed on numerous tumor cell lines and human cells, bryostatin-1 was administered for varying periods of time, ranging from 45 min to 24 hrs, and changes in the expression of CD19 and CD22 were measured. […] This elevation took time to become evident and was maximal at 72 h.

[4] = test system: antigen expression; details: FIGS. 3A and 3B; Ramakrishna et al. 2019; cited from earlier work
[5] = test system: tumor associated antigen expression; details: animal experiments; cited from earlier work
[6] = test system: CD22; details: B-cell tumors such as ALL and CLL; cited from earlier work
[7] = 1 nM, 45 min vs 3 hrs or 24 hrs
[8] = bryostatin-1 1 nM for 45 min, 3 hrs or 24 hrs

**Q.** With `CCC/C=C/C=C/C(=O)O[C@H]1/C(=C/C(=O)OC)C[C@H]2C[C@H]([C@@H](C)O)OC(=O)C[C@H](O)C[C@@H]3C[C@H](OC(C)=O)C(C)(C)[C@](O)(C[C@@H]4C/C(=C/C(=O)OC)C[C@H](/C=C/C(C)(C)[C@]1(O)O2)O4)O3` [bryostatin-1] as the compound, how does the “elevation of CD19 after 45 min incubation compared with longer incubations” value [1, 7] read?
**A.** Its value is “same elevation in antigens as longer incubations”.

**Q.** What about the “expression of CD19” value [1, 8] of the same compound?
**A.** The value was “increases in expression of CD19”.

**Q.** What about the “elevation of CD22 after 45 min incubation compared with longer incubations” value [2, 7] of the same compound?
**A.** Its value is “same elevation in antigens as longer incubations”.

**Q.** And the “expression of CD22” value [2, 8]?
**A.** The value was “increases in expression of CD22”.

**Q.** And the “time at which elevation of antigen expression was maximal” value ([3]; exposure 45 min to 24 hrs)?
**A.** The value was 72 h.

**Q.** And the “increase in antigen expression after short exposure (45 min) compared with 3 h or 24 h exposure” value ([3]; tumor cell lines and human cells, in vitro)?
**A.** The value was “same level of increase in antigen expression as 3 h or 24 h exposure”.

**Q.** What about the “time for which the increase in antigen expression remains elevated” value [4] of the same compound?
**A.** Its value is 7 days.

**Q.** And the “tumor associated antigen expression after a single intraperitoneal administration” value [5]?
**A.** Its value is “able to induce an elevation of tumor associated antigen expression”.

**Q.** What about the “cell-surface expression of CD22” value [6] of the same compound?
**A.** Its value is “increase cell-surface expression of CD22”.
